These results are taken from publication PMC10718521, “Complexity of αvβ6-integrin targeting RGD peptide trimers: emergence of non-specific binding by synergistic interaction” (RSC Medicinal Chemistry, 2023).

The structures appear in SMILES notation. Where a SMILES comes first, the peptide text is derived from it. [ ]: non-standard residue; d: D form. The star is where a group is joined. NMeK = CN[C@@H](CCCCN)C(=O)O; Pent4ynoyl = C#CCCC(=O)*

In one series the target is αvβ6-integrin (Homo sapiens, UniProt P06756+P18564). The series is described as follows: ELISA on immobilized integrins, αvβ6. The conditions noted are these: for IC50: ELISA, read-out: IC50 (95% confidence interval) αvβ6; for αvβ6-selectivity over α5β1 / αvβ6-selectivity over αvβ3 / αvβ6-selectivity over αvβ8: IC50-based. The class given is binding. The procedure:
(§1) The integrin affinities of the monomers were determined using an established ELISA protocol,[36] and expressed as 50% inhibitory concentrations (IC50, Table 1).
(§2) Unless otherwise noted, the materials and the instrumentation used (analytical and preparative HPLC, ESI-MS, gamma counter, centrifuge), and the experimental procedures (^68Ga radiolabeling and radio-TLC for quality control, determination of log D7.4, cultivation of H2009 human lung adenocarcinoma cells, generation of tumor xenografts in CB17 SCID mice, small-animal PET, and biodistribution) were described before.[19] All animal experiments have been carried out according to applicable law and institutional guidelines of Technical University of Munich, and were approved by the responsible local authority (Regierung von Oberbayern). The H2009 cells were regularly authenticated and tested for mycoplasma contamination. The affinities of the pentynoic amide functionalized peptides were determined employing a well-established ELISA protocol on immobilized integrins.[36] TRAP-triazide,[38]FF (previously termed AvB6),[32] and YY (also referred to as Tyr2-alkyne)[33] were synthesized as described previously. RP-HPLC for assessment of compound polarity was done on a 150 × 4.6 mm ReproSil-Pur 120 C18-AQ 5 μm column, with a flow of 0.75 mL min^−1 and a gradient of 10–50% MeCN in water, both containing 0.1% trifluoroacetic acid, within 15 min. The required ^natGa-complexes of the peptide trimers were synthesized by reaction with equimolar amounts of aq. GaCl3 as described.[19]

For the next series, the target named is αvβ8-integrin (Homo sapiens, UniProt P06756+P26012). Kind of series: ELISA on immobilized integrins, αvβ8. The format is binding. The conditions noted are these: read-out: IC50 (95% confidence interval) αvβ8. The protocol:
as §1
as §2, with “RP-HPLC for assessment of compound polarity was done on a 150 × 4.6 mm ReproSil-Pur 120 C18-AQ 5 μm column, with a flow of 0.75 mL min^−1 and a gradient of 10–50% MeCN in water, both containing 0.1% trifluoroacetic acid, within 15 min. The required ^natGa-complexes of the peptide trimers were synthesized by reaction with equimolar amounts of aq. GaCl3 as described.[19]” left out

The next series deals with αvβ3-integrin (Homo sapiens, UniProt P05106+P06756). The series is described as follows: ELISA on immobilized integrins, αvβ3. The format is binding. As to conditions: read-out: IC50 (95% confidence interval) αvβ3. The procedure:
as §1
as §2, with “RP-HPLC for assessment of compound polarity was done on a 150 × 4.6 mm ReproSil-Pur 120 C18-AQ 5 μm column, with a flow of 0.75 mL min^−1 and a gradient of 10–50% MeCN in water, both containing 0.1% trifluoroacetic acid, within 15 min. The required ^natGa-complexes of the peptide trimers were synthesized by reaction with equimolar amounts of aq. GaCl3 as described.[19]” left out

The target of a further series is α5β1-integrin (Homo sapiens, UniProt P05556+P08648). Kind of series: ELISA on immobilized integrins, α5β1. The class given is binding. As to conditions: read-out: IC50 (95% confidence interval) α5β1. The protocol: as §1
as §2, with “RP-HPLC for assessment of compound polarity was done on a 150 × 4.6 mm ReproSil-Pur 120 C18-AQ 5 μm column, with a flow of 0.75 mL min^−1 and a gradient of 10–50% MeCN in water, both containing 0.1% trifluoroacetic acid, within 15 min. The required ^natGa-complexes of the peptide trimers were synthesized by reaction with equimolar amounts of aq. GaCl3 as described.[19]” left out

A further series relates to H2009 bearing SCID mice. As to conditions: mouse, in vivo. The protocol:
Fig. 3 Positron emission tomography (PET) of severe combined immunodeficient (SCID) mice bearing subcutaneous H2009 (human lung adenocarcinoma) xenografts on the right shoulder. Dynamic scans for determination of biokinetics (a and b) were recorded in list mode and reconstructed in multiple frames with increasing time spans. Static images (c and d) were recorded over 20 min, 75 min after tracer administration, and reconstructed as single frames using the OSEM3D algorithm. […]
Unless otherwise noted, the materials and the instrumentation used (analytical and preparative HPLC, ESI-MS, gamma counter, centrifuge), and the experimental procedures (^68Ga radiolabeling and radio-TLC for quality control, determination of log D7.4, cultivation of H2009 human lung adenocarcinoma cells, generation of tumor xenografts in CB17 SCID mice, small-animal PET, and biodistribution) were described before.[19] […] The affinities of the pentynoic amide functionalized peptides were determined employing a well-established ELISA protocol on immobilized integrins.[36] […]

αvβ6-integrin, sequence (P06756 31-992 limits assumed): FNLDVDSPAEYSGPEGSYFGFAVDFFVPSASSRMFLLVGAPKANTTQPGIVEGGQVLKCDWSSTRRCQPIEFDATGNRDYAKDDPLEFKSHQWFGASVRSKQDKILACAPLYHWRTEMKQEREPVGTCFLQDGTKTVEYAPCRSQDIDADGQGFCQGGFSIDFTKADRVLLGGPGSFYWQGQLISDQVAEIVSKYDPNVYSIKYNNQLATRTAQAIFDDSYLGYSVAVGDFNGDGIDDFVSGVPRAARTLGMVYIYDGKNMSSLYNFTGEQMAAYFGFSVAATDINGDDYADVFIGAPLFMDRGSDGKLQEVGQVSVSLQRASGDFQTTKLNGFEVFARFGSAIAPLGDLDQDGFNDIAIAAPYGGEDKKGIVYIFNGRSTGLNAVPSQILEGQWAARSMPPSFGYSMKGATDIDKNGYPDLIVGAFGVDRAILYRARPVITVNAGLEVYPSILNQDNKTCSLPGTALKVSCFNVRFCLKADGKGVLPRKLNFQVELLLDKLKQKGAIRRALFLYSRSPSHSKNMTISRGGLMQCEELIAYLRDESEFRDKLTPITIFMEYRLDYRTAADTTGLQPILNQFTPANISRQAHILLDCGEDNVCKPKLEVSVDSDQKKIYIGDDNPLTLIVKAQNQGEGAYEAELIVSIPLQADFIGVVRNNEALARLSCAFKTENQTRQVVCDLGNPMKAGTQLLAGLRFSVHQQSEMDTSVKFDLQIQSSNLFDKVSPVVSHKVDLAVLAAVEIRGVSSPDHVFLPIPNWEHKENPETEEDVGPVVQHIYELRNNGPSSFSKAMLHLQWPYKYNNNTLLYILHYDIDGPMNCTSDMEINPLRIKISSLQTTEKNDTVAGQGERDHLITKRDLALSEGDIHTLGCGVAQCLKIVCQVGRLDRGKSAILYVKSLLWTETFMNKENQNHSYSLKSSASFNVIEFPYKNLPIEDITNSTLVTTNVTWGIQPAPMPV
αvβ6-integrin, sequence (P18564 22-707 limits assumed): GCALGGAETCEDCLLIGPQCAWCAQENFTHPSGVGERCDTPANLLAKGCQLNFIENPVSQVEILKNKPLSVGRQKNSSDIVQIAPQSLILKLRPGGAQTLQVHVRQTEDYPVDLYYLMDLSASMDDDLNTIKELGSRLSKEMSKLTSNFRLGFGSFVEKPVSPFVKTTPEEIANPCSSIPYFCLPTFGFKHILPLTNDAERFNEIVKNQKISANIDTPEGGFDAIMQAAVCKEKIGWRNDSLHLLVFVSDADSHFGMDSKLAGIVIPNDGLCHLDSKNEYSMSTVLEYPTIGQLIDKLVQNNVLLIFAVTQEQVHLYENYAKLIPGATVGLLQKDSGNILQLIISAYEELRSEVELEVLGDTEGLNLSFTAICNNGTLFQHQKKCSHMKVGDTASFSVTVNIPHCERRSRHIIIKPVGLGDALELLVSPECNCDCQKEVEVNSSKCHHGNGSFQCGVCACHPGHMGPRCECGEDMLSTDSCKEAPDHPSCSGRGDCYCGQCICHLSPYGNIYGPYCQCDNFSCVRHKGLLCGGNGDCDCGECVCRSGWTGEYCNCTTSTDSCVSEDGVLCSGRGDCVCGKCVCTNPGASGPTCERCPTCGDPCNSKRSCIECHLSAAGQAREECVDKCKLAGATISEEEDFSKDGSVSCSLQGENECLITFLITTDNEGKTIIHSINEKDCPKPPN
αvβ8-integrin, sequence (P06756 31-992 limits assumed): as the sequence (P06756 31-992 limits assumed) above
αvβ8-integrin, sequence (P26012 43-684 limits assumed): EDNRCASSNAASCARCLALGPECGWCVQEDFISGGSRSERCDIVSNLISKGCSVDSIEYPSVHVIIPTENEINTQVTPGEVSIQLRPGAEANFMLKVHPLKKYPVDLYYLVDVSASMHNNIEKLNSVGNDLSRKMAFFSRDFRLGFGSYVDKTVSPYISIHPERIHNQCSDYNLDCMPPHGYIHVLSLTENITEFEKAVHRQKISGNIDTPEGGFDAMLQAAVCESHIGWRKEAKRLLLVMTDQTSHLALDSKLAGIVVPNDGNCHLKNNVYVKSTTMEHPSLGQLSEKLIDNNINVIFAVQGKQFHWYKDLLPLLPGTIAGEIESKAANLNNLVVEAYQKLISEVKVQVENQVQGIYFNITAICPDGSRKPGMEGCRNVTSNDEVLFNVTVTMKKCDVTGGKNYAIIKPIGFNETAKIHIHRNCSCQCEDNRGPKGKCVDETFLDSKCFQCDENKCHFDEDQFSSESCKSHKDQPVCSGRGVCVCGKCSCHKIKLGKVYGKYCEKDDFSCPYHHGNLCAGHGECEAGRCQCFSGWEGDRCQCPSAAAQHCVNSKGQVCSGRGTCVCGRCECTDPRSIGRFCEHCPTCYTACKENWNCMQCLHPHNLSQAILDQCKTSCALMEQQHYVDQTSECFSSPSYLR
αvβ3-integrin, sequence (P06756 31-1048): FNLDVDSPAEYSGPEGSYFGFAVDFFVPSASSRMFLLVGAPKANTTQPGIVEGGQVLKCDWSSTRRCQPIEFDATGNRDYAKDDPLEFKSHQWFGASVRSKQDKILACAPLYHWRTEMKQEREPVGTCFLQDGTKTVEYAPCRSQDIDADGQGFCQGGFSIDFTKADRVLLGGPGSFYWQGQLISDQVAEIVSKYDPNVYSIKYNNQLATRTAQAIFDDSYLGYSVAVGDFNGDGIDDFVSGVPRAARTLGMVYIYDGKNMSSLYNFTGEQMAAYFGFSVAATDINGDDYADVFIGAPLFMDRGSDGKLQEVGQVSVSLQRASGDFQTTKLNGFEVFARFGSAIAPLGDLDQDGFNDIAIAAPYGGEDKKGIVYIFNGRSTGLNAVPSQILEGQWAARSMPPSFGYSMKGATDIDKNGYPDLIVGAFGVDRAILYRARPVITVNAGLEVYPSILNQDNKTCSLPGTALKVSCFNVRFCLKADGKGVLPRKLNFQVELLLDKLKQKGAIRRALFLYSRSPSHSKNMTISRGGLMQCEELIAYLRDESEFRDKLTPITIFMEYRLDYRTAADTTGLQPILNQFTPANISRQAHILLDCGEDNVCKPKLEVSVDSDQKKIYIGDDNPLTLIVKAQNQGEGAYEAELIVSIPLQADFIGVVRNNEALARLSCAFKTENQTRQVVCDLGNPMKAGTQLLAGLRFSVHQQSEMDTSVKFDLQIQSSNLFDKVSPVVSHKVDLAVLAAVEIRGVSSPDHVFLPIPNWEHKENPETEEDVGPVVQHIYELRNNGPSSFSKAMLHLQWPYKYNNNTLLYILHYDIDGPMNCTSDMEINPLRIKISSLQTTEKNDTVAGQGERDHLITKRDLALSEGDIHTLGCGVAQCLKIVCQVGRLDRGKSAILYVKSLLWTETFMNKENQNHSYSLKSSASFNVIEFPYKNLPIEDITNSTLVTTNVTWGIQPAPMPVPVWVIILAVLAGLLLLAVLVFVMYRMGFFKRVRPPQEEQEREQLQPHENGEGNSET
αvβ3-integrin, sequence (P05106 27-788): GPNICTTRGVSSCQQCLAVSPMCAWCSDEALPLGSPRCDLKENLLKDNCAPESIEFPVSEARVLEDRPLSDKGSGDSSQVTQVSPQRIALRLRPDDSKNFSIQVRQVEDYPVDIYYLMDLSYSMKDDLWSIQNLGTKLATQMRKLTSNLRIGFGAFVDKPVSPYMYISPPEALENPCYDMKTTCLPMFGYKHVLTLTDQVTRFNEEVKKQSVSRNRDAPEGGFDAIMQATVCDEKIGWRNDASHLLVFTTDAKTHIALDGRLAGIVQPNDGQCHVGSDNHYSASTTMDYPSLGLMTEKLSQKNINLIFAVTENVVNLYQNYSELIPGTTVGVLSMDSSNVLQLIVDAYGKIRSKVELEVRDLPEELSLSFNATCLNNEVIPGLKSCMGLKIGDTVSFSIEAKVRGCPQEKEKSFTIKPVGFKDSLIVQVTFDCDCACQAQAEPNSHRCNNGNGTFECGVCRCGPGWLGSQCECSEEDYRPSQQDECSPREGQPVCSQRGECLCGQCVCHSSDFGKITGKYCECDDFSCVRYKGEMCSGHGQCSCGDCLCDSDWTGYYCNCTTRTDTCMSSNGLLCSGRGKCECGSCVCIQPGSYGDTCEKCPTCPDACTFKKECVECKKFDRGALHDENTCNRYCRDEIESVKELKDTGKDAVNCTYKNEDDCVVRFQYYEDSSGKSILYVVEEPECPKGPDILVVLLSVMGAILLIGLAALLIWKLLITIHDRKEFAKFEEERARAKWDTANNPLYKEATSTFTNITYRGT

Consider `C#CCCC(=O)NCCCC[C@H]1C(=O)N[C@@H](Cc2ccccc2)C(=O)N[C@@H](CCCNC(=N)N)C(=O)NCC(=O)N[C@@H](CC(=O)O)C(=O)N[C@@H](CC(C)C)C(=O)N[C@@H](C)C(=O)N[C@@H](Cc2ccc(O)cc2)C(=O)N2CCC[C@@H]2C(=O)N1C` [FY] (cyclo(FRGDLAY[dP][NMeK](Pent4ynoyl))), for which the IC50 is 0.0028 µM at αvβ6-integrin, 0.037 µM at αvβ8-integrin, 0.732 µM on αvβ3-integrin and 0.177 µM at α5β1-integrin. Moreover, the “αvβ6-selectivity over α5β1” value at αvβ6-integrin came to 63. In addition, the “αvβ6-selectivity over αvβ3” value on αvβ6-integrin is 261. Further, at αvβ6-integrin, the “αvβ6-selectivity over αvβ8” value amounted to 13.2.
As for `CC(C)C[C@@H]1NC(=O)[C@H](CC(=O)O)NC(=O)CNC(=O)[C@H](CCCNC(=N)N)NC(=O)[C@H](Cc2ccc(O)cc2)NC(=O)[C@H](CCCCNC(=O)CCc2cn(CCCNC(=O)CCP(=O)(O)CN3CCN(CP(=O)(O)CCC(=O)NCCCn4cc(CCC(=O)NCCCC[C@H]5C(=O)N[C@@H](Cc6ccc(O)cc6)C(=O)N[C@@H](CCCNC(=N)N)C(=O)NCC(=O)N[C@@H](CC(=O)O)C(=O)N[C@@H](CC(C)C)C(=O)N[C@@H](C)C(=O)N[C@@H](Cc6ccc(O)cc6)C(=O)N6CCC[C@@H]6C(=O)N5C)nn4)CCN(CP(=O)(O)CCC(=O)NCCCn4cc(CCC(=O)NCCCC[C@H]5C(=O)N[C@@H](Cc6ccc(O)cc6)C(=O)N[C@@H](CCCNC(=N)N)C(=O)NCC(=O)N[C@@H](CC(=O)O)C(=O)N[C@@H](CC(C)C)C(=O)N[C@@H](C)C(=O)N[C@@H](Cc6ccc(O)cc6)C(=O)N6CCC[C@@H]6C(=O)N5C)nn4)CC3)nn2)N(C)C(=O)[C@H]2CCCN2C(=O)[C@H](Cc2ccc(O)cc2)NC(=O)[C@H](C)NC1=O` [Y6], the “Kinetic data Blood” value with H2009 bearing SCID mice came out at 13.14 ± 1.99.
With `C#CCCC(=O)NCCCC[C@H]1C(=O)N[C@@H](Cc2ccc(O)cc2)C(=O)N[C@@H](CCCNC(=N)N)C(=O)NCC(=O)N[C@@H](CC(=O)O)C(=O)N[C@@H](CC(C)C)C(=O)N[C@@H](C)C(=O)N[C@@H](Cc2ccccc2)C(=O)N2CCC[C@@H]2C(=O)N1C` [YF] (cyclo(YRGDLAF[dP][NMeK](Pent4ynoyl))), on αvβ6-integrin, the IC50 was 0.0033 µM, the “αvβ6-selectivity over α5β1” value is given as 35, the “αvβ6-selectivity over αvβ3” value came to 190 and the “αvβ6-selectivity over αvβ8” value is given as 6.9. For the same compound, the IC50 at αvβ8-integrin is 0.023 µM. Moreover, on αvβ3-integrin, the IC50 was found to be 0.63 µM. The IC50 at α5β1-integrin worked out at 0.114 µM.
